Measurements taken from patent publication US20230279020A9, “CARM1 INHIBITORS AND USES THEREOF” (Epizyme, Inc., priority 2013, published 2023).
pIC50: −log10 of the molar value.

Legend:
[1] = test system: asymmetric di-methyl PABP1 in RKO cells; assay: RKO methylation assay, In Cell Western (ICW) for asymmetric di-methyl PABP1; format: cell-based; details: Cellular potencies, PABP1me2a ICW
From the text: RKO adherent cells were purchased from ATCC (American Type Culture Collection), Manassas, Va., USA. DMEM/Glutamax medium, penicillin-streptomycin, heat inactivated fetal bovine serum, 0.05% trypsin and D-PBS were purchased from Life Technologies, Grand Island, N.Y., USA. Odyssey blocking buffer, 800CW goat anti-rabbit IgG (H+L) antibody, and Licor Odyssey infrared scanner were purchased from Licor Biosciences, Lincoln, Nebr., USA. Asymmetric di-methyl PABP1 antibody was purchased from Cell Signaling Technology, Danvers, Mass., USA. Methanol was purchased from VWR, Franklin, Mass., USA. 10% Tween 20 was purchased from KPL, Inc., Gaithersburg, Md., USA. Paraformaldehyde (PFA) was purchased from EM Sciences. DRAQ5 was purchased from Biostatus Limited, Leicestershire, UK.
RKO adherent cells were maintained in growth medium (DMEM/Glutamax medium supplemented with 10% v/v heat inactivated fetal bovine serum and 100 units/mL penicillin-streptomycin) and cultured at 37° C. under 5% CO2.
Cell treatment, In Cell Western (ICW) for detection of asymmetric di-methyl PABP1 and DNA content: RKO cells were seeded in assay medium at a concentration of 30,000 cells per mL to a poly-D-lysine coated 384 well culture plate (BD Biosciences 356697) with 50 μL per well. Compound (100 nL) from a 96-well source plate was added directly to 384 well cell plate. Plates were incubated at 37° C., 5% CO2 for 48 hours. After two days of incubation, plates were brought to room temperature outside of the incubator for ten minutes and blotted on paper towels to remove cell media. Cells were fixed for 20 minutes at room temperature by adding 50 ul of 8% PFA followed by aspiration of supernatant with the Biotek EL406 plate washer. Cells were then permeabilized by addition of 50 μL of ice cold 100% methanol directly to each well and incubated for 30 min at room temperature. After 30 min, plates were transferred to a Biotek EL406 plate washer and washed 2 times with 100 μL per well of wash buffer (1×PBS). Next 60 μL per well of Odyssey blocking buffer (Odyssey Buffer with 0.1% Tween 20 (v/v)) were added to each plate and incubated 1 hour at room temperature. Blocking buffer was removed and 20 μL per well of primary antibody was added (asymmetric-methyl PABP1) diluted 1:400 in Odyssey buffer with 0.1% Tween 20 (v/v)) and plates were incubated overnight (16 hours) at 4° C. Plates were washed 5 times with 100 μL per well of wash buffer. Next 20 μL per well of secondary antibody was added (1:800 800CW goat anti-rabbit IgG (H+L) antibody, 1:2000 DRAQ5 in Odyssey buffer with 0.1% Tween 20 (v/v)) and incubated for 1 hour at room temperature. The plates were washed 5 times with 100 μL per well wash buffer then 2 times with 100 μL per well of water. Plates were allowed to dry at room temperature then imaged on the Licor Odyssey machine which measures integrated intensity at 700 nm and 800 nm wavelengths. Both 700 and 800 channels were scanned.
First, the ratio for each well was determined by:
Each plate included fourteen control wells of DMSO only treatment (minimum inhibition) as well as fourteen control wells for maximum inhibition treated with 20 μM of a reference compound. The average of the ratio values for each control type was calculated and used to determine the percent […] for each test well in the plate. Reference compound was serially diluted three-fold in DMSO for a total of nine test concentrations, beginning at 20 μM.
Percent inhibition was determined and IC50 curves were generated using triplicate wells per concentration of compound.

Human CARM1 (PRMT4) = Human CARM1 (PRMT4) (Homo sapiens (Human), UniProt Q86X55); assay: CARM1 enzyme assay on peptide substrate (3H-SAM Flashplate); details: Biochemical potencies, classification codes; read-out: Biochem IC50
Human CARM1 (PRMT4), sequence (Q86X55 other isoform, or with tags, fused parts or gaps isoform Q86X55-1): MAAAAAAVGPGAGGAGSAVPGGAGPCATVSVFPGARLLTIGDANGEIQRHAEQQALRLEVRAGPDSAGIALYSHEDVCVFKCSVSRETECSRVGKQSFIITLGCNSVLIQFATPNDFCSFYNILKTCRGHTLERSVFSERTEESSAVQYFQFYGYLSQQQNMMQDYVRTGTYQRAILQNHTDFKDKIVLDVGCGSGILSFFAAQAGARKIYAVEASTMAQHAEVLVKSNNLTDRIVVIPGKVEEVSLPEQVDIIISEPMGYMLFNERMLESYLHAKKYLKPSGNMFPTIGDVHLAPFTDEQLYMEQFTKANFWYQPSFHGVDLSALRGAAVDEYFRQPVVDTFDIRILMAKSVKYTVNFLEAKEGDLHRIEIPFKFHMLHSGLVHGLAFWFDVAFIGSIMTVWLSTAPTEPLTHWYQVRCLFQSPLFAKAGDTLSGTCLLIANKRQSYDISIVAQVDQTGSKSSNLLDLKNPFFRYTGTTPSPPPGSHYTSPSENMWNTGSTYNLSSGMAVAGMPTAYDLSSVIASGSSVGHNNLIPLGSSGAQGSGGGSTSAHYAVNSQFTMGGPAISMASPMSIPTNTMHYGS

NCI-H929 = assay: Human myeloma cell line 14-day proliferation assay (NCI-H929); format: cell-based; details: NCI-H929 Human Multiple Myeloma cell line, varying doses, FIG. 1A
Experimental: (§1) Human Multiple Myeloma cell lines NCI-H929 (FIG. 1A) and U266B1 (FIG. 1B) were treated with varying doses of 304-1a (medium grey data points), 23-3 (light grey data points), and 113-3 (black data points) in a 14-day proliferation assay. At the end of the experiment, total cell number was determined for each cell line for different doses of 304-1a, 23-3, and 113-3.

U266B1 = assay: Human myeloma cell line 14-day proliferation assay (U266B1); format: cell-based; details: U266B1 Human Multiple Myeloma cell line, varying doses, FIG. 1B
Experimental: as §1

Row | SMILES | pIC50 ([1]; Homo sapiens, RKO) | pIC50 (Human CARM1 (PRMT4)) | pIC50 [1] | cell proliferation (total cell number) (NCI-H929) | cell proliferation (total cell number) (U266B1)
1 | CNCC(O)COc1cccc(-c2nc(N[C@@H]3CCOC3)c(C)c(-c3ccc4nccn4c3)n2)c1 (some centres unmarked) [Example 445-1a] | 4.70 to 5.00 |  |  |  | 
2 | CNCC(O)COc1cccc(-c2nc(-c3c(C)noc3C)cc(N3C[C@@H]4C[C@H]3CN4C(=O)OC)n2)c1 (some centres unmarked) [Example 105-1a] |  | > 7.00 | 5.00 to 5.30 |  | 
3 | CNCC(O)COc1cccc(-c2nc(C3CCN(C(=O)N(C)C)[C@@H](C)C3)cc(N(C)C3CCOCC3)n2)c1 (some centres unmarked) [Example 509-1a] | 5.00 to 5.30 | 6.00 to 7.00 |  |  | 
4 | CCS(=O)(=O)n1cc(-c2cc(N(C)C3CCOCC3)nc(-c3cccc(OCC(O)CNC)c3)n2)c2cncnc21 (centres unmarked) [Example 484-1a] | > 5.30 |  |  |  | 
5 | CNCC(O)COc1cccc(-c2nc(NC3CCOC3=O)cc(-c3c(C)noc3C)n2)c1 (centres unmarked) [Example 23-1a] | 4.70 to 5.00 | > 7.00 |  |  | 
6 | CCOC(=O)N1CCOC[C@@H]1CNc1nc(-c2cc(OC[C@H](O)CNC)ccc2Cl)nc(-c2c(C)noc2C)c1C [Example 23-3] |  | > 7.00 |  | decreased the proliferation | decreased the proliferation
7 | CNCC(O)COc1cccc(-c2nc(NC3CCOC3=O)cc(-c3c(C)noc3C)n2)c1 (centres unmarked) [Example 24-1a] |  |  | 4.70 to 5.00 |  | 
8 | CNC[C@@H](O)COc1ccc(Cl)c(-c2nc(-c3c(C)noc3C)c(C)c(N3Cc4cccnc4C3)n2)c1 [Example 113-3] |  | > 7.00 |  | decreased the proliferation | decreased the proliferation
9 | CNC[C@@H](O)COc1cccc(-c2nc(N3CC4(CCNCC4)c4ccccc43)cc(N(C)C3CCOCC3)n2)c1 [Example 558-1a] |  | > 7.00 | 4.70 to 5.00 |  | 
10 | CNC[C@@H](O)COc1ccc(Cl)c(-c2nc(NC3CCN(C(=O)OC)CC3)c(Cl)c(-c3c(C)noc3C)n2)c1 [Example 304-1a] |  | > 7.00 |  | decreased the proliferation | decreased the proliferation
11 | CNCC(O)COc1cccc(-c2nc(N[C@@H]3CCOC3)c(C)c(N3CCC(n4c(C)nnc4C)CC3)n2)c1 (some centres unmarked) [Example 390-1a] | 5.00 to 5.30 |  |  |  | 
12 | CNCC(O)COc1cccc(-c2nc(-c3c(C)noc3C)c(C)c(N3CCO[C@H](CNC)C3)n2)c1 (some centres unmarked) [Example 129-1a] |  | > 7.00 | 4.70 to 5.00 |  | 
